Measurements published in PMC9925730, “Controlled sequential in situ self-assembly and disassembly of a fluorogenic cisplatin prodrug for cancer theranostics” (Nature Communications, 2023).
Where “and” joins values, the source holds several entries; their conditions need not be identical. Identical values can stand only once. Like-named read-outs stand apart in the source and are kept apart here.

Experiments:
HeLa cells [1] = assay: Flow cytometry analysis of HeLa cell death (Annexin V-FITC/PI); format: cell-based, human; conditions: 20 μM 2 h, then blank medium 48 h
Protocol: Flow cytometric analysis of HeLa cell death. (a) Gating strategy applied for flow cytometric analysis. (b) Representative flow cytometric analysis of HeLa cells by Annexin V-FITC/PI staining. HeLa cells were treated with PBS, CDDP, PtIVNPs or P-CyPt (20 μM) for 2 h, washed with cold PBS for three times, and then continued incubation in refresh blank DMEM medium for another 48 h. The cells were then stained with the Annexin V-FITC/PI kit, and analyzed by flow cytometry. One representative experiment out of two is shown.
Flow cytometry analysis of HeLa cell death. Approximately 2×10^5 cells/well HeLa cells in 2 mL DMEM medium were seeded onto 6-well plates and allowed to grow overnight. The medium was replaced with 1 mL of fresh medium containing P-CyPt (20 μM), PtIVNPs (20 μM) and CDDP (20 μM), respectively. After 2 h incubation, medium was removed and cells were washed with PBS for three times. Then, cells were incubated with fresh medium for another 48 h to induce different levels of apoptosis.
After gentle washing with PBS (×1), the cells were detached from the plates with trypsin (500 μL per well), and the cell pellets were collected after centrifugation at 1000 161× g at 4 °C for 4 min. […] All assays were performed according to the manufacturer instructions, and the cell population was analyzed by annexin V-FITC and PI channels. […]

HepG2 cells = assay: Cytotoxicity, MTT assay; format: cell-based, human; design: key to cell viability, mean: % viability = OD / OD of untreated control
Protocol: (§1) HeLa cells were seeded on flat-bottomed 96-well plates (5000 cells per well) and incubated at 37 °C overnight. Varying concentrations of P-CyPt, Pt^IVNPs or CDDP (0, 1, 2, 5, 10, 20, 30, 50, 100, and 200 μM) in DMEM medium (100 μL) were added. Cells were either incubated for 48 h, or firstly incubated with these three compounds for 2 h, washed with PBS and then incubated with refreshed blank DMEM medium for another 48 h. Then, 3-(4,5)-dimethylthiahiazo (-z-y1)−3,5-di-phenytetrazoliumromide (MTT, 50 μL, 1 mg /mL in PBS) was added into each well. The cells were kept at 37 °C for 4 h, and the solution in each well was carefully removed, followed by addition of dimethyl sulfoxide (DMSO, 150 μL). The absorbance (OD) at 490 nm in each well was acquired on the microplate reader (Tcan). The absorbance of non-treated blank cells (OD control) was used as the control. The percentage of cell viability was calculated by dividing OD to the OD control. […]
(§2) Supplementary Table 4. The IC50 (μM) value of different Pt drugs toward HeLa, HepG2 and HEK-293T cells.a
(§3) Compounds Condition IC50 (μM) HeLa HepG2 HEK-293T […]
(§4) a The IC50 values were measured by the MTT assay. Values denote mean ± s.d. (n = 3 independent experiments). b Cells were incubated with varying concentrations of CDDP, P-CyPt or PtIVNPs for […]
(§5) c Cells were incubated with varying concentrations of CDDP, P-CyPt or PtIVNPs for 2 h, and the mediums were removed, washed with PBS. Blank culture mediums were added, and the cells were kept incubation for another 48 h.

HeLa cells [2] = assay: Cytotoxicity, MTT assay; format: cell-based, human; design: key to cell viability, mean: % viability = OD / OD of untreated control
Protocol: as §1, §2, §3, §4, §5

HEK-293T cells = assay: Cytotoxicity, MTT assay; format: cell-based, human; design: key to cell viability, mean: % viability = OD / OD of untreated control
Protocol: as §1, §2, §3, §4, §5

[3] = tested on: orthotopic HepG2/Luc liver tumors; assay: Chemotherapy of orthotopic liver tumors (BL imaging, ex vivo BL and FL imaging); format: in vivo, mice;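 as to tumor BL intensity of liver: bioluminescence quantified by ROI over liver region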
Protocol: During the treatment, the body weights of mice were also measured every three days. On day 15, all mice were sacrificed, the whole liver were excised and photographed. Then, P-CyPt (10 μM) and D-luciferin (5 mM) were sprayed on the surface of each liver to performed ex vivo BL and NIR FL imaging. The BL images were acquired at 10 min using the BL imaging mode (Open), and the NIR FL images were acquired at 30 min, using a 660 nm excitation filter and a 750 ± 50 nm emission filter. The average BL and FL intensities were quantified by the ROIs measurement in the tumor region of liver using the Living Image Software (4.5.2, PerkinElmer, MA, U.S.A). Each experiment was conducted in four mice.

[NH2][Pt]([NH2])([Cl])[Cl] [CDDP, cisplatin]
apoptosis population (HeLa cells [1]): ~ 5.20%
IC50 (HepG2 cells; HepG-2, 2+48 h, individual samples, read-out: IC50-2+48h): > 200 µM
IC50 (HepG2 cells; HepG-2, 2+48 h, mean of 3 samples, read-out: IC50-2+48h): > 200 µM
cell viability, mean (HepG2 cells; Supplementary Fig. 23 (b), concentration 1 μM): 95.3204
cell viability, mean (HepG2 cells; Supplementary Fig. 23 (b), concentration 2 μM): 89.9797
cell viability, mean (HepG2 cells; Supplementary Fig. 23 (b), concentration 5 μM): 77.7747
cell viability, mean (HepG2 cells; Supplementary Fig. 23 (b), concentration 10 μM): 61.9896
cell viability, mean (HepG2 cells; Supplementary Fig. 23 (b), concentration 20 μM): 45.1643
cell viability, mean (HepG2 cells; Supplementary Fig. 23 (b), concentration 30 μM): 34.2775
cell viability, mean (HepG2 cells; Supplementary Fig. 23 (b), concentration 50 μM): 23.521
cell viability, mean (HepG2 cells; Supplementary Fig. 23 (b), concentration 100 μM): 12.914
cell viability, mean (HepG2 cells; Supplementary Fig. 23 (b), concentration 200 μM): 8.323
IC50 (HepG2 cells; Supplementary Fig. 23 (b), read-out: IC50): 16.3 µM
cell viability, mean (HepG2 cells; Supplementary Fig. 24 (b), concentration 1 μM): 97.7401
cell viability, mean (HepG2 cells; Supplementary Fig. 24 (b), concentration 2 μM): 96.3386
cell viability, mean (HepG2 cells; Supplementary Fig. 24 (b), concentration 5 μM): 94.9498
cell viability, mean (HepG2 cells; Supplementary Fig. 24 (b), concentration 10 μM): 92.0343
cell viability, mean (HepG2 cells; Supplementary Fig. 24 (b), concentration 20 μM): 89.3937
cell viability, mean (HepG2 cells; Supplementary Fig. 24 (b), concentration 30 μM): 84.3715
cell viability, mean (HepG2 cells; Supplementary Fig. 24 (b), concentration 50 μM): 79.6906
cell viability, mean (HepG2 cells; Supplementary Fig. 24 (b), concentration 100 μM): 74.3564
cell viability, mean (HepG2 cells; Supplementary Fig. 24 (b), concentration 200 μM): 60.8897
IC50 (HepG2 cells; Supplementary Fig. 24 (b), read-out: IC50): > 200 µM
IC50 (HepG2 cells; incubated 2 h, then blank medium 48 h, MTT, read-out: IC50 HepG2): > 200 µM
IC50 (HepG2 cells; incubated 48 h, MTT, read-out: IC50 HepG2): 16.3 ± 1.69 µM
cell viability, mean (HeLa cells [2]; Supplementary Fig. 23 (a), concentration 1 μM): 94.4173
cell viability, mean (HeLa cells [2]; Supplementary Fig. 23 (a), concentration 2 μM): 90.2597
cell viability, mean (HeLa cells [2]; Supplementary Fig. 23 (a), concentration 5 μM): 78.7193
cell viability, mean (HeLa cells [2]; Supplementary Fig. 23 (a), concentration 10 μM): 62.7353
cell viability, mean (HeLa cells [2]; Supplementary Fig. 23 (a), concentration 20 μM): 41.6693
cell viability, mean (HeLa cells [2]; Supplementary Fig. 23 (a), concentration 30 μM): 27.22
cell viability, mean (HeLa cells [2]; Supplementary Fig. 23 (a), concentration 50 μM): 19.0133
cell viability, mean (HeLa cells [2]; Supplementary Fig. 23 (a), concentration 100 μM): 10.56
cell viability, mean (HeLa cells [2]; Supplementary Fig. 23 (a), concentration 200 μM): 6.51
IC50 (HeLa cells [2]; Supplementary Fig. 23 (a), read-out: IC50): 14.5 µM
cell viability, mean (HeLa cells [2]; Supplementary Fig. 24 (a), concentration 1 μM): 98.8285
cell viability, mean (HeLa cells [2]; Supplementary Fig. 24 (a), concentration 2 μM): 97.2876
cell viability, mean (HeLa cells [2]; Supplementary Fig. 24 (a), concentration 5 μM): 95.6072
cell viability, mean (HeLa cells [2]; Supplementary Fig. 24 (a), concentration 10 μM): 92.7687
cell viability, mean (HeLa cells [2]; Supplementary Fig. 24 (a), concentration 20 μM): 89.3445
cell viability, mean (HeLa cells [2]; Supplementary Fig. 24 (a), concentration 30 μM): 83.6169
cell viability, mean (HeLa cells [2]; Supplementary Fig. 24 (a), concentration 50 μM): 75.0853
cell viability, mean (HeLa cells [2]; Supplementary Fig. 24 (a), concentration 100 μM): 65.2268
cell viability, mean (HeLa cells [2]; Supplementary Fig. 24 (a), concentration 200 μM): 49.73
IC50 (HeLa cells [2]; Supplementary Fig. 24 (a), read-out: IC50): 178 µM
IC50 (HeLa cells [2]; incubated 2 h, then blank medium 48 h, MTT, read-out: IC50 HeLa): 178 µM and > 150 µM
IC50 (HeLa cells [2]; incubated 48 h, MTT, read-out: IC50 HeLa): 14.5 ± 1.6 µM
IC50 (HEK-293T cells; HEK-293T, 2+48 h, individual samples, read-out: IC50-2+48h): > 200 µM
IC50 (HEK-293T cells; HEK-293T, 2+48 h, mean of 3 samples, read-out: IC50-2+48h): > 200 µM
cell viability, mean (HEK-293T cells; Supplementary Fig. 23 (c), concentration 1 μM): 95.9542
cell viability, mean (HEK-293T cells; Supplementary Fig. 23 (c), concentration 2 μM): 90.0454
cell viability, mean (HEK-293T cells; Supplementary Fig. 23 (c), concentration 5 μM): 78.4742
cell viability, mean (HEK-293T cells; Supplementary Fig. 23 (c), concentration 10 μM): 63.7251
cell viability, mean (HEK-293T cells; Supplementary Fig. 23 (c), concentration 20 μM): 47.669
cell viability, mean (HEK-293T cells; Supplementary Fig. 23 (c), concentration 30 μM): 34.929
cell viability, mean (HEK-293T cells; Supplementary Fig. 23 (c), concentration 50 μM): 24.7568
cell viability, mean (HEK-293T cells; Supplementary Fig. 23 (c), concentration 100 μM): 14.7932
cell viability, mean (HEK-293T cells; Supplementary Fig. 23 (c), concentration 200 μM): 8.255
IC50 (HEK-293T cells; Supplementary Fig. 23 (c), read-out: IC50): 17.4 µM
cell viability, mean (HEK-293T cells; Supplementary Fig. 24 (c), concentration 1 μM): 98.6071
cell viability, mean (HEK-293T cells; Supplementary Fig. 24 (c), concentration 2 μM): 97.4354
cell viability, mean (HEK-293T cells; Supplementary Fig. 24 (c), concentration 5 μM): 96.6584
cell viability, mean (HEK-293T cells; Supplementary Fig. 24 (c), concentration 10 μM): 94.4248
cell viability, mean (HEK-293T cells; Supplementary Fig. 24 (c), concentration 20 μM): 94.1486
cell viability, mean (HEK-293T cells; Supplementary Fig. 24 (c), concentration 30 μM): 93.57
cell viability, mean (HEK-293T cells; Supplementary Fig. 24 (c), concentration 50 μM): 92.6006
cell viability, mean (HEK-293T cells; Supplementary Fig. 24 (c), concentration 100 μM): 91.2991
cell viability, mean (HEK-293T cells; Supplementary Fig. 24 (c), concentration 200 μM): 85.8671
IC50 (HEK-293T cells; Supplementary Fig. 24 (c), read-out: IC50): > 200 µM
IC50 (HEK-293T cells; incubated 2 h, then blank medium 48 h, MTT, read-out: IC50 HEK-293T): > 200 µM
IC50 (HEK-293T cells; incubated 48 h, MTT, read-out: IC50 HEK-293T): 17.4 ± 1.05 µM
tumor BL over the course of treatment ([3]; 2.25 mg kg^−1 Pt i.v. on day 0, 3, 6, 9, 12): markedly increased
tumor BL intensity of liver ([3]; day 15): 861747.5
Normalized FL intensity of mCy (ex vivo liver tumor, Fig. 5h) ([3]; day 15, livers sprayed with P-CyPt 10 μM, normalized to PBS group): 0.90
Normalized BL intensity (ex vivo liver tumor, Fig. 5h) ([3]; day 15, normalized to PBS group): 0.87
